The source of these data is US20110230659A1, “CYCLOBUTYL PURINE DERIVATIVE, ANGIOGENESIS PROMOTING AGENT, LUMEN FORMATION PROMOTING AGENT, NEUROCYTE GROWTH PROMOTING AGENT, AND DRUG” (NATIONAL UNIVERSITY CORPORATION KAGAWA UNIVERSITY, priority 2008, published 2011).

The test system of experiment [1] is human umbilical vein endothelial cells (HUVEC) and normal human dermal fibroblasts. In words: Measurement of lumen formation (angiogenesis kit, CD31 immunostaining, lumen area). The experiment is classed as cell-based. As to the method:
The measurement of lumen formation was carried out in the following manner using commercially available angiogenesis kits (Kurabo), each including human umbilical vein endothelial cells (HUVEC) and normal human dermal fibroblasts. First, sample solutions were prepared by dissolving 2-Cl—C.OXT-A in physiological saline so as to achieve predetermined concentrations (1, 10, 100, 500 μmol/l, 1, 5, 10, 50 mmol/l). Then, the sample solutions containing 2-Cl—C.OXT-A at the predetermined concentrations respectively were added to media provided in the kits so that their concentrations became 10 v/v %. Thus, lumen formation media were prepared. The final concentrations of 2-Cl—C.OXT-A in the lumen formation media were 0.1, 1, 10, 50, 100, 500 μmol/l, 1 and 5 mmol/1.
Using each of the lumen formation media, the human umbilical vein endothelial cells (HUVEC) and the normal human dermal fibroblasts were cultured for 10 days. After the culture, the human umbilical vein endothelial cells (HUVEC) were immunostained using a lumen staining kit (for CD31 staining, Kurabo). Then, using NIH Image (image processing and analysis software), the area of a portion stained by the immunostaining (lumen area) was measured. As a control, a medium provided in the kit was used instead of the lumen formation medium to carry out the culture, and the cells were immunostained and the lumen area was measured in the same manner as in the above. Then, using the following equation (II), the relative value of lumen area in the culture using each of the lumen formation media containing 2-Cl—C.OXT-A at the predetermined concentrations was calculated.
In the present example, the relative value of lumen area was calculated in the same manner as in the lumen formation measurement in Example 1, except that the measurement was carried out with respect to four groups respectively using media Nos. 5 to 8 prepared by adding 2-Cl—C.OXT-A and PD98059 to media provided in the above-described angiogenesis kits (Kurabo) so that their concentrations became as shown in Table 2 below. In the group using the medium No. 7, the culture was conducted using the medium No. 7 from the first to third days of the culture and the medium No. 5 from the fourth to tenth days of the culture, and in the group using the medium No. 8, the culture was conducted using the medium No. 8 from the first to third days of the culture and the medium No. 6 from the fourth to tenth days of the culture.
In the present example, the relative value of lumen area was calculated in the same manner as in the lumen formation measurement in Example 1, except that the measurement was carried out with respect to six groups respectively using media Nos. 15 to 20 prepared by adding 2-Cl—C.OXT-A, VEGF (positive control), and SU5416 to media provided in the above-described angiogenesis kit (Kurabo) so that their concentrations became as shown in Table 4 below. In the group using the medium No. 16, the culture was conducted using the medium No. 16 from the first to third days of the culture and the medium No. 15 from the fourth to tenth days of the culture; in the group using the medium No. 18, the culture was conducted using the medium No. 18 from the first to third days of the culture and the medium No. 17 from the fourth to tenth days of the culture; and in the group using the medium No. 20, the culture was conducted using the medium No. 20 from the first to third days of the culture and the medium No. 19 from the fourth to tenth days of the culture.

Experiment [2] has as its system Akt. In words: Akt activation (phosphorylation) immunoblot in HUVEC. It is filed as cell-based, human. Conditions: 100 μmol/l; 0 to 60 minutes. Here is the method:
First, to a HuMedia-EB2 medium (Kurabo) to which 2 v/v % inactivated fetal bovine serum (FBS) had been added, 2-Cl—C.OXT-A was added so that its concentration became 100 μmol/l. Thus, a medium was prepared. Using the medium, human umbilical vein endothelial cells (HUVEC) were cultured for predetermined periods (0, 10, 20, 30, 45, and 60 minutes).
After the culture, cells were collected. The collected cells were lysed by adding a cell lysis buffer (SDS-lysis buffer) thereto, and heat-denatured at 95° C. for 5 minutes. The solubilized protein in an amount corresponding to 5 v/v % of the heat-denatured cell lysate was subjected to electrophoresis using 10% SDS-polyacrylamide gel, whereby the solubilized protein was transferred onto a nitrocellulose membrane (Amersham Biosciences). […]
The enzymes were visualized with SuperSignal (registered trademark) West Pico Chemiluminescent Substrate (Pierce), and detected by being exposed to RX—U X-ray film (FUJIFILM Corporation). From the detected bands, the respective phosphoenzymes and total enzymes were quantified using an NIH image software. Furthermore, the relative value (−fold) of each phosphoenzyme was calculated by substituting the measured value of the phosphoenzyme into the following equation (III).

`Nc1nc(Cl)nc2c1ncn2C1CC(CO)C1CO` (stereo not drawn) [2-Cl—C.OXT-A, 6-amino-2-chloro-9-[trans-trans-2,3-bis(hydroxymethyl)cyclobutyl]purine]: the “relative value of lumen area compared with control” value in experiment [1] (Example 7, medium No. 6: only 2-Cl—C.OXT-A 10 μmol/l) is “about 3 fold”. For the same compound, in experiment [1] (Example 9, medium No. 17: 2-Cl—C.OXT-A 10 μmol/l), the lumen area result is listed as “increased markedly”. The “relative value of lumen area” value is on record as “larger than that of the control” in experiment [1] (final concentration 100 nmol/l to 1 mmol/l, versus control) and 3.8 in experiment [1] (final concentration 100 μmol/l, highest activity). Moreover, the “stained area (lumen formation, immunostaining photographs)” value in experiment [1] (final concentration 10 μmol/l to 1 mmol/l, 10 days, versus control) is “larger than that in the control”. Besides, in experiment [1] (final concentration 10 to 500 μmol/l, VEGF 10 ng/ml), the “lumen formation promoting-activity compared with VEGF (relative value of lumen area)” value is “higher than that in Comparative Example 7”. Further, in experiment [1] (final concentrations 10 and 100 μmol/l, VEGF 10 ng/ml), the “lumen formation promoting-activity compared with VEGF (photographs)” value is reported as “higher than that in Comparative Example 7”. Further, the “amount of pAkt” value in experiment [2] was “not changed”.
